As a reminder, the IC50 is the point on the concentration scale where inhibition reaches its midpoint.

In the first assay the target is biotinylated Avi-POLθ[2-894] (Homo sapiens (Human), UniProt O75417). Briefly: POLθ ATPase assay (ADP-Glo). The conditions noted are these: POLθ ATPase, ADP-Glo; n=2; read-out: Biochemical ATPase ADPGlo IC50. The procedure: In some embodiments, the ATPase assay a compound of the present disclosure is combined with biotinylated Avi-POLθ[2-894], a 50 nucleotide poly-thymine repeat single-stranded DNA, and ATP in buffer. In some embodiments, the mixture is incubated and ADP-Glo Reagent added, followed by a subsequent incubation. In some embodiments, a Kinase Detection Reagent may be added, followed by a third incubation. In some embodiments, the activity is measured via luminescence signal (e.g., measured with the EnVision multimode plate reader). POLθ-mediated ATP hydrolysis was measured using the ADP-Glo Kinase Assay (Promega Corporation, Madison, WI). Reactions were performed in white 384-well small-volume microplates (Greiner Bio-One, Frickenhausen, Germany) using a total volume of 15 μL. The ATPase reaction consisted of 1 nM biotinylated Avi-POLθ[2-894], 5 nM of a 50 nucleotide poly-thymine repeat single-stranded DNA (PolyT(50) ssDNA), and 100 μM ATP in 5 μL of assay buffer (50 mM Tris, pH 7.5, 80 mM KCl, 10 MgCl2, 1 mM DTT, 5% glycerol, 0.01% BSA, 0.01% Tween-20). Inhibition of POLΘATPase activity was determined by preparing 11-point serial dilutions of the test compounds in 100% DMSO, then transferring 30 nL of the compounds into the ATPase reaction using an Echo acoustic liquid handler (Beckman Coulter, Brea, CA). DMSO-treated wells containing either all of the reaction components (1 nM biotinylated Avi-POLθ[2-894], 5 nM PolyT(50) ssDNA, 100 μM ATP) or with assay buffer substituted for the biotinylated Avi-POLθ[2-894](0 nM biotinylated Avi-POLθ[2-894], 5 nM PolyT(50) ssDNA, 100 μM ATP) were used to define the maximum and minimum response in the assay. Following a one-hour incubation at ambient temperature, 5 μL of ADP-Glo Reagent was added to the ATPase reaction, and this mixture was allowed to incubate at ambient temperature for an additional hour. Lastly, 5 μL of Kinase Detection Reagent was added, followed by a third one-hour incubation at ambient temperature. […] Luminescence signal was measured using the EnVision multimode plate reader (Perkin Elmer. Waltham. MA). […] Non-linear regression analysis using the four-parameter logistic equation was conducted on the percent activity values of the compound dose-responses, yielding the AC50 value for each compound. Genedata Screener (Genedata. Basel, Switzerland) was used for the data analysis.
Chain of biotinylated Avi-POLθ[2-894] (O75417 2-894): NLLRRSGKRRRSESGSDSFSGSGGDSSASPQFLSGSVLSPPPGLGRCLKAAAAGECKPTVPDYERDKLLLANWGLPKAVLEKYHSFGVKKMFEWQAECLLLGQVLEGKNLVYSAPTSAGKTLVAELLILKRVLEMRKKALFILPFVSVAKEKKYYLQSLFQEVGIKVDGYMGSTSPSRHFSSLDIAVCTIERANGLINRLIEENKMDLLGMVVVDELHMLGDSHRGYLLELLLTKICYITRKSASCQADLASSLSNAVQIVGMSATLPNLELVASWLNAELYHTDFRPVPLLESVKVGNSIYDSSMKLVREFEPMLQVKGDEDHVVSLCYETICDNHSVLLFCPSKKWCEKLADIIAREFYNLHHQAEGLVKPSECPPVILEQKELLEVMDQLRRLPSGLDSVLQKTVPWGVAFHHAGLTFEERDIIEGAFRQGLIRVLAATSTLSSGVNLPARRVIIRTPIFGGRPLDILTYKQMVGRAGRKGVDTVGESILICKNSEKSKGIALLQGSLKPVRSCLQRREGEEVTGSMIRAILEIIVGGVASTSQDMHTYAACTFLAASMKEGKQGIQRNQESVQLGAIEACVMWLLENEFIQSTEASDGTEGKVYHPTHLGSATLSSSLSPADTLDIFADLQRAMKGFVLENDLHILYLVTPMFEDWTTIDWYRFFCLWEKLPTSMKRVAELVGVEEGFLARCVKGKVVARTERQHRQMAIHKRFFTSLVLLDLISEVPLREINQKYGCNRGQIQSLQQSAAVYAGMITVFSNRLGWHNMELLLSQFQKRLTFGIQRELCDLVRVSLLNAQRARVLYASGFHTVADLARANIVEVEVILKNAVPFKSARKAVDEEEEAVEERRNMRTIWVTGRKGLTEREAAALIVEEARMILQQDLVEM
On the technique in general: In ADP-Glo the light output rises with the ADP produced.
Consider `COc1cnc(Cl)cc1-c1cc(C)ncc1C(=O)Nc1nc2c(s1)CN(C(=O)c1ccc(Cl)c(C(F)F)c1)C2`, for which the IC50 fell in the range of 1 to 15 nM.
Still for that read-out and setting: as for `COc1ccc(C#N)cc1-c1cc(C)ncc1C(=O)Nc1nc2c(s1)CN(C(=O)c1ccc(F)c(C(F)F)c1)C2`, the figure is 1 to 15 nM; as for `COc1cnc(Cl)cc1-c1cc(C)ncc1C(=O)Nc1nc2c(s1)CN(C(=O)c1cccc3cncn13)C2`, 1 to 15 nM.
The same measure, in the same setting: the value for `COc1cnc(C(=O)N2Cc3nc(NC(=O)c4cnc(C)cc4-c4cc(Cl)ncc4OC)sc3C2)nc1` was 1 to 15 nM; that for `COc1cnc(Cl)cc1-c1cc(C)ncc1C(=O)Nc1nc2c(s1)CN(C(=O)c1nccs1)C2` was 1 to 15 nM.
Take `COc1ccc(C#N)cc1-c1cc(C)ncc1C(=O)Nc1nc2c(s1)CN(C(=O)c1ccc(Cl)c(C(F)F)c1)C2`: the half-inhibitory concentration (IC50) is 1 to 15 nM.
The same measure, in the same setting: the value for `COc1cnc(Cl)cc1-c1cc(C)ncc1C(=O)Nc1nc2c(s1)CN(C(=O)c1ccncn1)C2` was 1 to 15 nM; that for `COc1cnc(Cl)cc1-c1cc(C)ncc1C(=O)Nc1nc2c(s1)CN(C(=O)c1cccc(OC(F)(F)F)n1)C2` was 1 to 15 nM.
Same read-out and setting: the value for `COc1cnc(Cl)cc1-c1cc(C)ncc1C(=O)Nc1nc2c(s1)CN(C(=O)c1cncc(C(F)(F)F)n1)C2` was 1 to 15 nM; that for `COc1cnc(Cl)cc1-c1cc(C)ncc1C(=O)Nc1nc2c(s1)CN(C(=O)c1cnc(OC(F)F)cn1)C2` was 1 to 15 nM.
Take `COc1cnc(Cl)cc1-c1cc(C)ncc1C(=O)Nc1nc2c(s1)CN(C(=O)c1ncncc1Cl)C2`: the IC50 fell in the range of 1 to 15 nM.
Take `COc1cc(Cl)c(C(=O)N2Cc3nc(NC(=O)c4cnc(C)cc4-c4cc(Cl)ncc4OC)sc3C2)nn1`: the IC50 is 1 to 15 nM.
On the same count and under the same terms, as for `COc1cnc(Cl)cc1-c1cc(C)ncc1C(=O)Nc1nc2c(s1)CN(C(=O)c1cncc(C)n1)C2`, the figure is 1 to 15 nM; as for `COc1cnc(Cl)cc1-c1cc(C)ncc1C(=O)Nc1nc2c(s1)CN(C(=O)c1nc(C(F)(F)F)co1)C2`, 1 to 15 nM.
Take `COc1cnc(Cl)cc1-c1cc(C)ncc1C(=O)Nc1nc2c(s1)CN(C(=O)c1ncc(C)nc1C)C2`: the IC50 fell in the range of 1 to 15 nM.
`COc1cnc(Cl)cc1-c1cc(C)ncc1C(=O)Nc1nc2c(s1)CN(C(=O)c1ncc(C)n1C)C2`: the 50% inhibitory concentration (IC50) fell in the range of 1 to 15 nM.
On the same count and under the same terms, as for `COc1cnnc(C(=O)N2Cc3nc(NC(=O)c4cnc(C)cc4-c4cc(Cl)ncc4OC)sc3C2)c1`, the figure is 15 to 50 nM.
Same read-out and setting: the value for `COc1cnc(Cl)cc1-c1cc(C)ncc1C(=O)Nc1nc2c(s1)CN(C(=O)C1CCCC(OC(F)F)C1)C2` (centres unmarked) was 150 to 900 nM.
Same read-out and setting: the value for `COc1cnc(Cl)cc1-c1cc(C)ncc1C(=O)Nc1nc2c(s1)C[C@H](C(=O)N1CC(O)C1)CC2` was 50 to 150 nM.
On to `COc1cnc(Cl)cc1-c1cc(C)ncc1C(=O)Nc1nc2c(s1)C[C@@H](C(=O)N[C@H]1CC[C@H]1O)CC2`, for which the IC50 lay in the range of 150 to 900 nM.
Same read-out and setting: the value for `COc1cnc(Cl)cc1-c1cc(C)ncc1C(=O)Nc1nc2c(s1)C[C@H](C(=O)N[C@H]1CC[C@H]1O)CC2` was 150 to 900 nM; that for `COc1cnc(Cl)cc1-c1cc(C)ncc1C(=O)Nc1nc2c(s1)C[C@@H](C(=O)N[C@H]1CC[C@@H]1O)CC2` was 150 to 900 nM.
On the same count and under the same terms, the value for `COc1cnc(Cl)cc1-c1cc(C)ncc1C(=O)Nc1nc2c(s1)C[C@H](C(=O)N[C@H]1CC[C@@H]1O)CC2` was 150 to 900 nM; that for `COc1cnc(Cl)cc1-c1cc(C)ncc1C(=O)Nc1nc2c(s1)C[C@H](C(=O)N[C@@H]1CC[C@@H]1O)CC2` was 150 to 900 nM.

The assay is the same for the next values; noted with them: n=2; read-out: Biochemical ATPase ADPGlo IC50.
Take `COc1ccc(C#N)cc1-c1cc(C)ncc1C(=O)Nc1nc2c(s1)CN(C(=O)[C@@H]1CC[C@@H]1C)C2`: the IC50 lay in the range of 15 to 50 nM.
As to `COc1ccc(C#N)cc1-c1cc(C)ncc1C(=O)Nc1nc2c(s1)CN(C(=O)[C@@H]1CC[C@H]1C)C2`, the IC50 lay within 1 to 15 nM.
Take `COc1ccc(C#N)cc1-c1cc(C)ncc1C(=O)Nc1nc2c(s1)CN(S(=O)(=O)N1CCCC1)CC2`: the IC50 was 50 to 150 nM.
On the same count and under the same terms, the value for `COc1ccc(C#N)cc1-c1cc(C)ncc1C(=O)Nc1nc2c(s1)CN(C(=O)c1cccnc1)CC2` was 150 to 900 nM.
The same measure, in the same setting: the value for `COc1ccc(C#N)cc1-c1cc(C)ncc1C(=O)Nc1nc2c(s1)CN(S(=O)(=O)C1CCOC1)C2` (centres unmarked) was 15 to 50 nM; that for `COc1ccc(C#N)cc1-c1cc(C)ncc1C(=O)Nc1nc2c(s1)CN(S(=O)(=O)C1CCCC1)CC2` was 150 to 900 nM.
Take `CCNS(=O)(=O)N1CCc2nc(NC(=O)c3cnc(C)cc3-c3cc(C#N)ccc3OC)sc2C1`: the IC50 was 50 to 150 nM.
Consider `COc1ccc(C#N)cc1-c1cc(C)ncc1C(=O)Nc1nc2c(s1)CN(S(=O)(=O)c1cccnc1)C2`, for which the half-maximal inhibitory concentration (IC50) was 50 to 150 nM.
As for `COc1ccccc1-c1cc(C)ncc1C(=O)Nc1nc2c(s1)CN(c1nccs1)C2`, the IC50 was at least 900 nM.
On the same count and under the same terms, as for `COc1ccccc1-c1cc(C)ncc1C(=O)Nc1nc2c(s1)CN(S(=O)(=O)NCC(C)C)C2`, the figure is 50 to 150 nM.
On the same count and under the same terms, as for `COc1ccc(C#N)cc1-c1cc(C)ncc1C(=O)Nc1nc2c(s1)CN(S(=O)(=O)C1CCOCC1)C2`, the figure is 50 to 150 nM; as for `COc1ccccc1-c1cc(C)ncc1C(=O)Nc1nc2c(s1)CN(S(=O)(=O)N1CCOCC1)C2`, 15 to 50 nM.
Same read-out and setting: as for `COc1ccccc1-c1cc(C)ncc1C(=O)Nc1nc2c(s1)CN(S(=O)(=O)N1CCCC1)C2`, the figure is 50 to 150 nM; as for `COc1ccccc1-c1cc(C)ncc1C(=O)Nc1nc2c(s1)CC(Nc1ccccc1)CC2` (centres unmarked) [listing 1 of 3 here], 50 to 150 nM.
With `CNS(=O)(=O)N1Cc2nc(NC(=O)c3cnc(C)cc3-c3ccccc3OC)sc2C1`, the 50% inhibitory concentration (IC50) is 50 to 150 nM.
Same read-out and setting: the value for `COc1ccccc1-c1cc(C)ncc1C(=O)Nc1nc2c(s1)CC(Nc1ccccc1)CC2` (centres unmarked) [listing 2 of 3 here] was 50 to 150 nM; that for `COc1ccccc1-c1cc(C)ncc1C(=O)Nc1nc2c(s1)CC(c1ccc(Cl)cc1)CC2` (centres unmarked) [listing 1 of 2 here] was 50 to 150 nM.
Same read-out and setting: the value for `COc1ccccc1-c1cc(C)ncc1C(=O)Nc1nc2c(s1)CN(S(=O)(=O)N(C)C)C2` was 150 to 900 nM.
`COC(=O)N1Cc2nc(NC(=O)c3cnc(C)cc3-c3ccccc3OC)sc2C1`: the IC50 was in the range of 150 to 900 nM.
With `COc1ccccc1-c1cc(C)ncc1C(=O)Nc1nc2c(s1)CC(c1ccc(Cl)cc1)CC2` (centres unmarked) [listing 2 of 2 here], the half-maximal inhibitory concentration (IC50) was 150 to 900 nM.
Same read-out and setting: the value for `COc1ccccc1-c1cc(C)ncc1C(=O)Nc1nc2c(s1)CN(C(=O)N(C)C)C2` was at least 900 nM; that for `COc1ccccc1-c1cc(C)ncc1C(=O)Nc1nc2c(s1)CC(Oc1ccccc1)CC2` (centres unmarked) was at least 900 nM; that for `COc1ccccc1-c1cc(C)ncc1C(=O)Nc1nc2c(s1)CN(C(=O)C1(C#N)CC1)C2` was at least 900 nM.
Still for that read-out and setting: the value for `COc1ccccc1-c1cc(C)ncc1C(=O)Nc1nc2c(s1)C(=O)N(C1CC1)C2` was at least 900 nM.
Same read-out and setting: as for `COc1ccccc1-c1cc(C)ncc1C(=O)Nc1nc2c(s1)CCCC2`, the figure is at least 900 nM; as for `COc1ccccc1-c1cc(C)ncc1C(=O)Nc1nc2c(s1)CN(C(=O)C1CCCCC1)CC2`, at least 900 nM; as for `COc1ccccc1-c1cc(C)ncc1C(=O)Nc1nc2c(s1)CC(Nc1ccccc1)CC2` (centres unmarked) [listing 3 of 3 here], at least 900 nM.
As to `COc1ccccc1-c1cc(C)ncc1C(=O)Nc1nc2c(s1)CNC2`, the IC50 is at least 900 nM.
On the same count and under the same terms, as for `CNC(=O)N1Cc2nc(NC(=O)c3cnc(C)cc3-c3ccccc3OC)sc2C1`, the figure is at least 900 nM; as for `COc1ccccc1-c1cc(C)ncc1C(=O)Nc1nc2c(s1)CN(C1CCCCC1)CC2`, at least 900 nM.
Take `COc1ccccc1-c1cc(C)ncc1C(=O)Nc1nc2c(s1)COCC2`: the IC50 is at least 900 nM.
As to `COc1ccccc1-c1cc(C)ncc1C(=O)Nc1nc2c(s1)CCN(C(=O)OC(C)(C)C)C2`, the half-maximal inhibitory concentration (IC50) is at least 900 nM.
